Measured values as given in ChEMBL document CHEMBL4725373, “Introduction of Scaffold Nitrogen Atoms Renders Inhibitors of the Malarial l-Lactate Transporter, PfFNT, Effective against the Gly107Ser Resistance Mutation” (J Med Chem, 2020).
Calls of active or inactive are those of the source. The calls are words filed in the database; no cut-off is given here.

Assays:
[1] = (§1) Inhibition of Plasmodium falciparum FNT expressed in Saccharomyces cerevisiae W303-1A del-jen1 ady2-del (MATa, can1-100, ade2-loc, his3-11-15, leu2-3,-112, trp1-1-1, ura3-1, jen1::kanMX4, ady2::hphMX4) assessed as reduction in [1-14C]-L-lactate uptake incubated for 10 to 15 mins followed by [1-14C]-L-lactate addition and measured after 30 secs by liquid scintillation counting method
[2] = as §1, with “FNT G107S mutant” for “FNT”, “after 120” for “after 30”
[3] = as §1, with “20” for “10 to 15”, “addition” for “addition and measured after 30 secs”
Plasmodium falciparum [4] = test: Antiplasmodial activity against Plasmodium falciparum 3D7 assessed as reduction in parasitemia after 24 hrs by LSR II FACS method; assay type: functional, organism-based; conditions: 3D7, 24 h
[5] = as §1, with “FNT G107S mutant” for “FNT”, “20” for “10 to 15”, “addition” for “addition and measured after 30 secs”
Plasmodium falciparum [6] = test: Antiplasmodial activity against Plasmodium falciparum 3D7 assessed as reduction in parasite regrowth at 0.45 uM incubated for 14 days followed by compound washout and measured after 7 days; assay type: functional, organism-based; conditions: time 14.0 day
Plasmodium falciparum [7] = test: Antiplasmodial activity against Plasmodium falciparum 3D7 assessed as reduction in parasitemia incubated for 48 hrs supplemented with fresh medium containing compound at 24 hrs by LSR II FACS method; assay type: functional, organism-based
Plasmodium falciparum [8] = test: Antiplasmodial activity against Plasmodium falciparum 3D7 assessed as reduction in parasite regrowth at 0.75 uM incubated for 14 days followed by compound washout and measured after 30 days; assay type: functional, organism-based; conditions: time 14.0 day

Row | Compound | IC50 [1] [nM] | IC50 [2] [nM] | further results
1 | O=C(/C=C(\O)C(F)(F)C(F)(F)F)/C=C/c1ccccc1 | 290 | 26000 | –
2 | O=C(/C=C(\O)C(F)(F)C(F)(F)F)c1cnccn1 | 460 | 1200 | –
3 | O=C(/C=C(\O)C(F)(F)C(F)(F)F)c1cc2ccccc2o1 | 190 | 17000 | –
4 | COc1ccc(C(=O)/C=C(\O)C(F)(F)C(F)(F)F)c(O)c1 | – | – | IC50 [3]: 170 nM; EC50 (Plasmodium falciparum [4]): 140 nM; IC50 [5]: 20000 nM; Activity (Plasmodium falciparum [6]): inactive
5 | Cc1ccc(C(=O)/C=C(\O)C(F)(F)C(F)(F)F)cn1 | 150 | 1700 | –
6 | O=C(/C=C(\O)C(F)(F)C(F)(F)F)c1ccc[nH]1 | 160 | 12000 | –
7 | Cn1ccc(C(=O)/C=C(\O)C(F)(F)C(F)(F)F)c1 | 130 | 14000 | –
8 | COc1ccc(CC(=O)/C=C(\O)C(F)(F)C(F)(F)F)cc1 | 1900 | 69000 | –
9 | O=C(/C=C(\O)C(F)(F)C(F)(F)F)c1ccncc1 | 150 | 22000 | –
10 | CC(C)(O)CC(=O)/C=C(\O)C(F)(F)C(F)(F)F | 1100 | 490000 | –
11 | COc1ccc(C(=O)/C=C(\O)C(F)(F)C(F)(F)F)cc1 | – | – | IC50 [3]: 140 nM; EC50 (Plasmodium falciparum [4]): 3400 nM; IC50 [5]: 2600 nM
12 | CCCCC(F)(F)/C(O)=C/C(=O)c1cccnc1 | 360 | 24000 | EC50 (Plasmodium falciparum [7]): 20100 nM
13 | O=C(/C=C(\O)C(F)(F)C(F)(F)F)c1cccnn1 | 860 | 3800 | –
14 | O=C(/C=C(\O)C(F)(F)C(F)(F)F)c1cc[nH]c1 | 200 | 13000 | –
15 | O=C(/C=C(\O)C(F)(F)C(F)(F)F)c1cccnc1 | 110 | 630 | EC50 (Plasmodium falciparum [7]): 240 nM; Activity (Plasmodium falciparum [8]): Active
16 | O=C(/C=C(\O)C(F)(F)CO)c1cccnc1 | 5500 | – | –
17 | O=C(/C=C(\O)C(F)(F)C(F)(F)F)c1ccc(Cl)cn1 | 230 | 510 | EC50 (Plasmodium falciparum [7]): 14000 nM
18 | O=C(/C=C(\O)C(F)(F)C(F)(F)F)c1cnc2ccccc2c1 | 240 | 96000 | –
19 | Cc1[nH]nc(C(F)(F)F)c1Cc1sc2c(c1C(=O)N1C[C@](C)(O)CO1)c(=O)n(C)c(=O)n2C(C)C | – | – | Activity (Plasmodium falciparum [7]): inactive
20 | O=C(/C=C(\O)C(F)(F)C(F)(F)F)Nc1ccccc1 | 18000 | 378000 | –
21 | COc1ccc(CCC(=O)/C=C(\O)C(F)(F)C(F)(F)F)cc1 | 190 | 6300 | –
22 | COc1ccc(C(=O)/C=C(\O)C(F)(F)C(F)(F)F)cn1 | 110 | 260 | EC50 (Plasmodium falciparum [7]): 3880 nM
23 | O=C(/C=C(\O)C(F)(F)C(F)(F)F)c1ccccn1 | 150 | 580 | EC50 (Plasmodium falciparum [7]): 13500 nM
